# Test: Waters XBridge BEH C18, 150 × 1 mm, 1.7 µm, 30 °C, 0.04 mL/min, estimated dead time 1.9 min; A: 79.7% water + 20% methanol + 0.3% acetic acid; B: 99.7% methanol + 0.3% acetic acid; gradient (min/%B) 0/0 17/58.7 17.2/100 20.2/100
# Details: stereoisomer not certain
row,SMILES,LC retention time [min]
1,CN1CCC23c4c5ccc(O)c4OC2C(O)C=CC3C1C5 (stereo unspecified),3.5
2,COC(=O)C1C2CCC(CC1OC(=O)c1ccccc1)N2 (stereo unspecified),12.8
3,CCC(N)Cc1ccc2c(c1)OCO2 (stereo unspecified),10.3
4,CCOP(=O)(Sc1ccccc1)Sc1ccccc1,16.7
5,Cn1c(=O)[nH]c2ncn(C)c2c1=O,6.1
6,c1ccc(C2(N3CCCCC3)CCCCC2)cc1,14.7
7,CN1CCC23c4c5ccc(O)c4OC2C(=O)CCC3(O)C1C5 (stereo unspecified),3.6
8,COc1ccc2c3c1OC1C(=O)CCC4(O)C(C2)N(C)CCC314 (stereo unspecified),5.4
9,COc1ccc2c3c1OC1C(O)C=CC4C(C2)NCCC341 (stereo unspecified),5.1
10,CCNC(C)Cc1ccc2c(c1)OCO2 (stereo unspecified),9.4
11,COc1cc(CCN)cc(OC)c1OC,7
12,CCN(CC)C(=O)C1C=C2c3cccc4[nH]cc(c34)CC2N(C)C1 (stereo unspecified),13.8
13,CNC(C)C(O)c1ccccc1 (stereo unspecified),5.9
14,CNC(C)C(=O)c1ccccc1 (stereo unspecified),5.6
15,CCC(=O)OC(Cc1ccccc1)(c1ccccc1)C(C)CNC (stereo unspecified),20.1
16,CC(=O)Oc1ccc2c3c1OC1C(OC(C)=O)C=CC4C(C2)N(C)CCC341 (stereo unspecified),11.4
17,COC(=O)C1=CCC2CCC1N2C (stereo unspecified),3.6
18,COc1ccc2c3c1OC1C(O)CCC4C(C2)N(C)CCC341 (stereo unspecified),4.6
19,COc1ccc(C(CN(C)C)C2(O)CCCCC2)cc1 (stereo unspecified),15.4
20,CN1CCCC1c1cccnc1 (stereo unspecified),3.3
21,CCOC(=O)C1C(OC(=O)c2ccccc2)CC2CCC1N2C (stereo unspecified),13.9
22,CCC(Cc1ccc2c(c1)OCO2)NC (stereo unspecified),10.3
23,c1ccc(CN2CCNCC2)cc1,4.3

row,SMILES,LC retention time [min]
1,CN1C2CCC1C(C(=O)O)C(OC(=O)c1ccccc1)C2 (stereo unspecified),10.7
2,CN1C2CC=C(C(=O)O)C1CC2 (stereo unspecified),3
3,COC(=O)C1C(OC(=O)c2ccccc2)CC2CCC1N2C (stereo unspecified),11.8
4,CN(C)CCC=C1c2ccccc2CSc2ccccc21,19.2
5,CNC(C)Cc1ccccc1 (stereo unspecified),7.9
6,CCCc1nn(C)c2c(=O)[nH]c(-c3cc(S(=O)(=O)N4CCN(C)CC4)ccc3OCC)nc12,18.8
7,COC12CCC3(CC1C(C)(O)C(C)(C)C)C1Cc4ccc(O)c5c4C3(CCN1CC1CC1)C2O5 (stereo unspecified),17.3
8,CN1C(=O)CCC1c1cccnc1 (stereo unspecified),3.6
9,COc1ccc2c3c1OC1C(O)C=CC4C(C2)N(C)CCC341 (stereo unspecified),4.8
10,Oc1ccc2c3c1OC1C(O)C=CC4C(C2)NCCC341 (stereo unspecified),3.5
11,CC(=O)OC1C=CC2C3Cc4ccc(O)c5c4C2(CCN3C)C1O5 (stereo unspecified),6.4
12,CCC(=O)C(CC(C)N(C)C)(c1ccccc1)c1ccccc1 (stereo unspecified),20.2
13,CC(N)Cc1ccccc1 (stereo unspecified),7.5
14,CCC(=O)OC(Cc1ccccc1)(c1ccccc1)C(C)CN(C)C (stereo unspecified),19.6
15,CC(N)Cc1ccc2c(c1)OCO2 (stereo unspecified),8.1
16,O=C1CN=C(c2ccccc2)c2cc([N+](=O)[O-])ccc2N1,19.8
17,Cc1ccccc1-n1c(C)nc2ccccc2c1=O,20.2
18,Nc1ccc2c(c1)C(c1ccccc1)=NCC(=O)N2,6.2
19,CNCC1CCCCC1(O)c1cccc(OC)c1 (stereo unspecified),12.5
20,Cn1c(=O)c2c(ncn2C)n(C)c1=O,9
21,CNC(C)Cc1ccc2c(c1)OCO2 (stereo unspecified),8.3
22,COc1cccc(C2(O)CCCCC2CN(C)C)c1 (stereo unspecified),11.4
23,CC(N)C(O)c1ccccc1 (stereo unspecified),5.2

# From the RepoRT retention time repository
